For 20 molecules, GI50 and TGI results are on record in PubChem BioAssay (NCI).

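Each compound was tested at five concentrations against cells in 96-well plates for 48 hours. GI50 marks 50% less growth. At the TGI there is no net growth.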 Where only a bound is given, the exact number is not on record here.

What all share (experiment): NCI-60 cell line screen, 48 h
Assay [1] has as its system HCT-15 colon.
Assay [2] deals with KM12 colon.
The subject of assay [3] is LOX IMVI melanoma.
Assay [4] relates to NCI-H522 lung.
Assay [5] relates to OVCAR-4 ovarian.
Assay [6] has as its system OVCAR-5 ovarian.
In assay [7] the test system is RXF 393 renal.
In assay [8] the test system is TK-10 renal.
Assay [9] deals with UACC-62 melanoma.
In assay [10] the test system is UO-31 renal.

Regarding `COc1cccc2c(Nc3ccc(C(=O)NCCN(C)C)cc3)cc(-c3ccccc3)nc12`, the GI50 is 16.4 µM in assay [1]; 19.7 µM in assay [2]; 18.1 µM in assay [3]; 16.6 µM in assay [4]; 33 µM in [5]; 23.7 µM in assay [6]. In addition, the GI50 in [7] is 5.12 µM; in assay [8], 23.8 µM; in assay [9] it was 18.2 µM; in [10], 13.9 µM. In addition, the TGI in assay [1] was 38.4 µM; in assay [2], 43.2 µM; in [3], 33.9 µM; in assay [4], 32.4 µM; in assay [5], more than 100 µM; in [6], 50.6 µM. The TGI was determined as 19.7 µM in assay [7], 57.2 µM in assay [8], 32.5 µM in assay [9] and 32.3 µM in assay [10].
With `Clc1ccc(-c2cn(-c3ccccc3)c(-c3ccccc3)n2)c(Cl)c1`, the GI50 in [1] was 2.91 µM; in assay [2] it was 0.932 µM; in assay [3], more than 14 µM; in [4] it was more than 24.2 µM; in assay [5] it was 0.884 µM; in assay [6], more than 16 µM. Besides, the GI50 in assay [7] was 2.11 µM; in [8] it was 1.14 µM; in [9], more than 20.2 µM; in [10], 10.2 µM. The TGI in assay [1] is more than 50 µM; in [2], 2.02 µM; in assay [3], more than 50 µM; in [4], more than 50 µM; in [5], 1.81 µM; in assay [6] it was more than 45.1 µM. Also, the TGI in assay [7] was 11.9 µM; in [8] it was 2.17 µM; in [9], more than 50 µM; in [10] it was more than 50 µM.
As for `O=C1CCC(=O)C12CCc1cccc(O)c12`, the TGI in assay [1], in [3], in [5], in assay [7], in assay [8] and in [9] was more than 100 µM in each case. The same molecule had a TGI in [10] of more than 100 µM.
Take `COc1ccc(Nc2c[nH]c(=O)[nH]c2=O)cc1`: the TGI in assay [1], in assay [2], in assay [3], in assay [4], in assay [5] and in [7] was more than 100 µM throughout. For the same molecule, the TGI in [8], in assay [9] and in assay [10] was more than 100 µM throughout.
Regarding `CC(C)(C)C(=O)OCC(COC(=O)C(C)(C)C)[N+](=O)[O-]`, the TGI in assay [1] is more than 100 µM; in [2] it was more than 100 µM; in assay [3] it was more than 100 µM; in assay [4], 47.3 µM; in assay [5], more than 100 µM; in [6], more than 100 µM. Further, the TGI in [7], in assay [8], in assay [9] and in assay [10] was more than 100 µM in each case.
For `CCOC(=O)c1cnc2c(cnn2CC)c1NN=C(C)C`, the GI50 in assay [1] was 32 µM; in assay [2], 67.1 µM; in assay [3], 35.3 µM; in assay [4], 73.2 µM; in [5] it was 94.6 µM; in assay [6] it was 26.6 µM. The GI50 in assay [7] was 11.4 µM; in [8], 27.1 µM; in assay [9], 45.3 µM; in assay [10] it was 23.2 µM. Also, the TGI in [1], in [2], in [3], in assay [4], in assay [5] and in assay [6] was more than 100 µM in each case. For the same molecule, the TGI in assay [7] was 70 µM; in assay [8], more than 100 µM; in [9] it was more than 100 µM; in assay [10], more than 100 µM.
With `N#CC(=S)Nc1ccc(F)cc1`, the TGI in [1], in [2], in assay [3], in [5], in assay [6] and in assay [7] was more than 100 µM each time. Also, the TGI in [8] and in assay [9] was more than 100 µM in each case.
With `O=c1c2cccnc2ncn1CCCN1CCOCC1`, the TGI in assay [2], in assay [3], in [4], in assay [5], in assay [6] and in assay [7] was more than 100 µM in each case. The TGI in assay [8], in assay [9] and in [10] was more than 100 µM each time.
For the molecule `Oc1ccc(-c2nc3ccc4[nH]ncc4c3c3c2CCCC3)c2cccnc12`, the GI50 is 0.153 µM in [1]; 0.311 µM in assay [2]; 0.203 µM in [3]; 0.119 µM in [4]; 0.781 µM in assay [5]; 1.16 µM in assay [6]. Also, the GI50 was 0.266 µM in assay [7], 0.496 µM in [8], 0.512 µM in [9] and 0.128 µM in [10]. Also, the TGI in assay [1] amounted to 7.3 µM; in assay [2] it was 7.93 µM; in assay [3] it was 4.01 µM; in assay [4], 5.2 µM; in [5] it was 6.06 µM; in [6] it was 14.7 µM. Further, the TGI in assay [7] worked out at 2.44 µM; in assay [8], 7.01 µM; in assay [9] it was 1.97 µM; in [10], 0.934 µM.
For the molecule `COc1cc(/C=C/C(=O)c2cc(OC)c(OC)c(OC)c2)cc(OC)c1OC`, the GI50 in assay [1] was 3.41 µM; in assay [2], 1.98 µM; in assay [3], 2.74 µM; in assay [4], 3.09 µM; in [5], 3.63 µM; in assay [6], 5.68 µM. Also, the GI50 in [7] was 2.81 µM; in assay [8] it was 4.42 µM; in assay [9] it was 5.93 µM; in assay [10], 2.05 µM. The TGI is 62.9 µM in [1]; 4.84 µM in [2]; 10.9 µM in assay [3]; 12.1 µM in assay [4]; 57.8 µM in assay [5]; 20.1 µM in assay [6]. In addition, the TGI in assay [7] amounted to 11.4 µM; in assay [8] it was 59.2 µM; in [9], 20.4 µM; in assay [10], 12.1 µM.
Regarding `CC(C)(C)c1nnc2n(c1=O)N=CC(c1ccc(Br)cc1)S2` (stereo not given), the GI50 in assay [1] was 20.1 µM; in assay [2], 26.1 µM; in [3], 22.5 µM; in [4], 19.2 µM; in [5], 33.9 µM; in assay [6] it was 42.2 µM. Moreover, the GI50 in [7] is 23.6 µM; in assay [8], 34.7 µM; in assay [9], 17.5 µM; in [10], 20.7 µM. For the same molecule, the TGI in [1] is 48 µM; in assay [2], more than 100 µM; in assay [3] it was 46.8 µM; in assay [4] it was 41.7 µM; in [5] it was more than 100 µM; in [6], more than 100 µM. For the same molecule, the TGI in assay [7] is 82.5 µM; in assay [8] it was more than 100 µM; in assay [9], 32.7 µM; in assay [10], 47.4 µM.
`COc1ccc(-c2[nH]ncc2-c2cc(OC)c(OC)c(OC)c2)cc1`: the GI50 is less than 0.01 µM in assay [1]; less than 0.01 µM in assay [2]; less than 0.01 µM in [3]; less than 0.01 µM in assay [4]; less than 0.0397 µM in [5]; less than 0.018 µM in assay [6]. The GI50 in assay [7], in assay [9] and in assay [10] was less than 0.01 µM in each case. Also, the TGI in [1] was more than 80.6 µM; in assay [2] it was 13.1 µM; in assay [3], 44.4 µM; in assay [4], less than 0.01 µM; in assay [5], 29.6 µM; in assay [6], more than 47.7 µM. Further, the TGI is 17.8 µM in assay [7], 22.5 µM in assay [9] and 11.2 µM in [10].
Take `Cc1ccc([Se][Se]c2ccc(C)cc2)cc1`: the TGI in assay [1] is more than 100 µM; in [2] it was more than 100 µM; in assay [3], 18.9 µM; in assay [4] it was 16.3 µM; in assay [5], 36.9 µM; in assay [7], more than 100 µM. For the same molecule, the results for the TGI in [8], in assay [9] and in [10] were more than 100 µM, 31.7 µM and 49.7 µM, respectively.
With `CC1=C(c2cc(C(=O)Nc3cccc(C(F)(F)F)c3)nc(NC#N)n2)Sc2ccccc2N1`, the TGI in [1], in assay [2], in assay [3], in assay [5], in [6] and in assay [7] was more than 100 µM in each case. Moreover, the TGI in [8], in assay [9] and in assay [10] was more than 100 µM throughout.
Regarding `COc1ccc(-c2nn(-c3cccc(NC(=O)Nc4cccc(C(F)(F)F)c4)c3)cc2-c2ccncc2)cc1Cl`, the GI50 in assay [1] is 1.81 µM; in assay [2], 1.47 µM; in assay [3] it was 3.02 µM; in assay [4] it was 1.6 µM; in assay [6], 3.73 µM; in [7], 1.33 µM. The values for the GI50 in [8], in assay [9] and in assay [10] were 4.1 µM, 2.02 µM and 1.48 µM, respectively. For the same molecule, the TGI was more than 100 µM in assay [1]; 5.23 µM in assay [2]; more than 100 µM in assay [3]; 6.07 µM in [4]; more than 100 µM in assay [6]; 6.37 µM in assay [7]. In addition, the TGI was more than 100 µM in assay [8], 5.59 µM in assay [9] and more than 100 µM in [10].
In the case of `CN(C)CCCC(=O)Nc1ccc(Cn2nnc3c2C(=O)c2nnn(Cc4ccc(NC(=O)CCCN(C)C)cc4)c2C3=O)cc1`, the GI50 in [1] was 56.8 µM; in [2], 7.54 µM; in assay [3] it was 2.22 µM; in assay [4], 2.15 µM; in assay [5], 1.34 µM; in [6], 19 µM. In addition, the GI50 in assay [7] is 5 µM; in [8], more than 100 µM; in [10], more than 100 µM. In addition, the TGI in assay [1] was more than 100 µM; in assay [2], 22.7 µM; in assay [3], 5.62 µM; in [4], 5.06 µM; in assay [5] it was 2.64 µM; in [6] it was 51.4 µM. Also, the TGI in [7] is 21.6 µM; in [8] it was more than 100 µM; in [10], more than 100 µM.
For `COC1(OC)c2ccccc2C2(O)c3ccccc3C(=O)C12` (stereo not given), the TGI in [1] is more than 100 µM; in assay [2] it was more than 100 µM; in [3], more than 100 µM; in [4], 47 µM; in assay [6] it was more than 100 µM; in [7] it was more than 100 µM. The TGI in [8] is more than 100 µM; in [9], more than 100 µM; in assay [10] it was 86.8 µM.
Consider `CC(C)(CCC(C)(C)c1ccccc1)c1ccccc1`, for which the TGI in assay [1] is 45.7 µM; in assay [2], 30.6 µM; in assay [3], 32 µM; in assay [4] it was 29.9 µM; in [5], 39.7 µM; in assay [6], 33.5 µM. Moreover, the TGI in assay [7] amounted to 27.5 µM; in assay [8], 46.4 µM; in assay [9], 41.4 µM.
Consider `C1C[OH+]CC[OH+]CC[OH+]CC[OH+]CC[OH+]CC[OH+]1.[Cl-].[Ta+5]`, for which the GI50 in assay [1], in [2], in [3], in [4], in assay [5] and in assay [7] was more than 100 µM in each case. Besides, the figures for the GI50 in assay [8], in assay [9] and in assay [10] were more than 100 µM, more than 100 µM and 5.02 µM, respectively. Besides, the TGI in [1], in assay [2], in [3], in assay [4], in assay [5] and in [7] was more than 100 µM in each case. Further, the TGI in assay [8] was more than 100 µM; in assay [9] it was more than 100 µM; in [10], 30.3 µM.
In the case of `C=CCNC(=S)OCCCCCCCCCC`, the TGI in [1] amounted to 29.4 µM; in [2], 26.6 µM; in assay [3] it was 26.9 µM; in [5] it was 30.5 µM; in [6], 21.8 µM; in [7] it was 29.1 µM. Further, the TGI was found to be 24.1 µM in [8], 30.2 µM in [9] and 24.8 µM in assay [10].
